US20170226120A1, “INHIBITORS OF HIF PROLYL HYDROXYLASE” (MERCK SHARP & DOHME CORP., priority 2014, published 2017)
Where two headings read alike, the source gives them in different places.

Tests used:
[1] = biological target: T1, human HIF-PHD2 (Homo sapiens, UniProt Q9GZT9); assay: HIF-PHD2 inhibition, time resolved fluorescence assay of HIF-1α peptide hydroxylation; assay type: biochemical; settings: FLAG-tagged full length PHD2; 0.2 μM 2-oxoglutarate, 0.5 μM HIF-1α peptide
T1 construct: FLAG-tagged full length PHD2 expressed in and purified from baculovirus-infected Sf9 cells; FLAG; made in house; host or cells: baculovirus-infected Sf9 cells
Protocol: To each well of a 384-well plate, 1 μL of test compounds in DMSO (final concentration ranging from 0.3 nM to 10 uM) were added into 20 μl of assay buffer (50 mM Tris pH 7.4/0.01% Tween-20/0.1 mg/ml bovine serum albumin/10 μM ferrous sulfate/1 mM sodium ascorbate/20 μg/ml catalase) containing 0.15 μg/ml FLAG-tagged full length PHD2 expressed in and purified from baculovirus-infected Sf9 cells. After a 5 min preincubation at room temperature, the enzymatic reactions were initiated by the addition of 4 μL of substrates {final concentrations of 0.2 μM 2-oxoglutarate and 0.5 μM HIF-1α peptide biotinyl-[…] […] After incubation for 45 minutes at room temperature, the reactions were terminated by the addition of a 25 μL quench/detection mix to a final concentration of 1 mM ortho-phenanthroline, 0.1 mM EDTA, 0.5 nM anti-(His)6 LANCE reagent (Perkin-Elmer Life Sciences), 100 nM AF647-labeled streptavidin (Invitrogen), and 2 μg/ml (His)6-VHL complex {S. Tan Protein Expr. Purif.

[2] = Tissue PK profile in rat (liver and plasma drug level); assay type: in vivo; settings: 10 mg/kg; for concentration at 4 h: po; for Kp at 4 h: liver/plasma, read-out: liver/plasma ratio
Protocol: The tissue PK profile of compounds described in this application were evaluated in rat. The tissue was harvested 4 hours after PO dosing at 10 mpk (vehicle: 0.5% MC; dose volume: 5 mL/Kg) and the drug level was determined. Shown in Table 1 are compound concentrations of selected examples in rat liver and plasma, as well as liver to plasma drug ratio.

[3] = liver, 4 hours after PO dosing at 10 mpk, vehicle 0.5% MC, read-out: liver concentration
[4] = 4 hours after PO dosing at 10 mpk, vehicle 0.5% MC
[5] = plasma, 4 hours after PO dosing at 10 mpk, vehicle 0.5% MC, read-out: plasma concentration

T1 sequence (Q9GZT9 whole entry): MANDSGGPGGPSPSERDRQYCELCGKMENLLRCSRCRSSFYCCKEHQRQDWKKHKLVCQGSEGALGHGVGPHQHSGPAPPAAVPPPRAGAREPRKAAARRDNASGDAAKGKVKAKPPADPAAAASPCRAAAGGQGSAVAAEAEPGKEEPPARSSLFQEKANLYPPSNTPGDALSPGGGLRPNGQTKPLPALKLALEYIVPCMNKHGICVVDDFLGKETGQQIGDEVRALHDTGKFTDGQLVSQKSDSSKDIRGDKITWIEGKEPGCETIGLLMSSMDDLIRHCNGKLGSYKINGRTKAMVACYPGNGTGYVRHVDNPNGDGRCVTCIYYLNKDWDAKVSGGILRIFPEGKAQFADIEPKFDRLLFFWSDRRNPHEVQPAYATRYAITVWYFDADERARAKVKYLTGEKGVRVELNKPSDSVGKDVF

Row | Compound | IC50 [1] [nM] | concentration at 4 h [2, 3] [nM] | Kp at 4 h [2, 4] | concentration at 4 h [2, 5] [nM] | concentration at 4 h ([2]; in vivo, liver concentration) [nM] | concentration at 4 h ([2]; in vivo, plasma concentration) [nM]
1 | Cc1cc(Cl)ccc1Cn1c2c(c(O)c(C(=O)NCC(=O)O)c1=O)COC2 [Example 42, 2-(1-(4-chloro-2-methylbenzyl)-4-hydroxy-2-oxo-1,2,5,7-tetrahydrofuro[3,4-b]pyridine-3-carboxamido)acetic acid] | 4.1 | 54200 | 35.6 | 1520 |  | 
2 | O=C(O)CNC(=O)c1c(O)c2c(n(Cc3cnc(C(F)(F)F)s3)c1=O)COC2 [Example 18, 2-(4-hydroxy-2-oxo-1-((2-(trifluoromethyl)thiazol-5-yl)methyl)-1,2,5,7-tetrahydrofuro[3,4-b]pyridine-3-carboxamido)acetic acid] |  |  | 258 |  | 11800 | 55.9
3 | CC(C)(O)c1ccc(Cn2c3c(c(O)c(C(=O)NCC(=O)O)c2=O)COC3)cc1 [Example 5, 2-(4-Hydroxy-1-(4-(2-hydroxypropan-2-yl)benzyl)-2-oxo-1,2,5,7-tetrahydrofuro[3,4-b]pyridine-3-carboxamido)acetic acid] |  |  | 214 |  | 5600 | 26.7
4 | O=C(O)CNC(=O)c1c(O)c2c(n(Cc3ccc(F)cc3F)c1=O)COC2 [Example 32, 2-(1-(2,4-difluorobenzyl)-4-hydroxy-2-oxo-1,2,5,7-tetrahydrofuro[3,4-b]pyridine-3-carboxamido)acetic acid] |  |  | 52.8 |  | 24800 | 492
5 | NC(=O)c1ccc(-c2ccc(Cn3c4c(c(O)c(C(=O)NCC(=O)O)c3=O)COC4)cc2)cc1 [Example 61, 2-(1-((4′-carbamoyl-[1,1′-biphenyl]-4-yl)methyl)-4-hydroxy-2-oxo-1,2,5,7-tetrahydrofuro[3,4-b]pyridine-3-carboxamido)acetic acid] | 1.1 | 25.8 | 4.89 | 5.28 |  | 
6 | O=C(O)CNC(=O)c1c(O)c2c(n(Cc3nc(C(F)(F)F)cs3)c1=O)COC2 [Example 21, 2-(4-hydroxy-2-oxo-1-((4-(trifluoromethyl)thiazol-2-yl)methyl)-1,2,5,7-tetrahydrofuro[3,4-b]pyridine-3-carboxamido)acetic acid] |  |  | 587 |  | 4770 | 8
7 | O=C(O)CNC(=O)c1c(O)c2c(n(Cc3cnc(C(F)(F)F)cn3)c1=O)COC2 [Example 11, 2-(4-hydroxy-2-oxo-1-((5-(trifluoromethyl)pyrazin-2-yl)methyl)-1,2,5,7-tetrahydrofuro[3,4-b]pyridine-3-carboxamido)acetic acid] |  |  | 359 |  | 7900 | 22
8 | O=C(O)CNC(=O)c1c(O)c2c(n(Cc3ccn(-c4ccccc4)n3)c1=O)COC2 [Example 22, 2-(4-hydroxy-2-oxo-1-((1-phenyl-1H-pyrazol-3-yl)methyl)-1,2,5,7-tetrahydrofuro[3,4-b]pyridine-3-carboxamido)acetic acid] |  |  | 66.6 |  | 816 | 11.8
9 | O=C(O)CNC(=O)c1c(O)c2c(n(Cc3ccc(Cl)cc3)c1=O)COC2 [Example 27, 2-(1-(4-chlorobenzyl)-4-hydroxy-2-oxo-1,2,5,7-tetrahydrofuro[3,4-b]pyridine-3-carboxamido)acetic acid] |  |  | 39.6 |  | 21500 | 551
10 | O=C(O)CNC(=O)c1c(O)c2c(n(Cc3cc(F)c(F)cc3F)c1=O)COC2 [Example 41, 2-(4-hydroxy-2-oxo-1-(2,4,5-trifluorobenzyl)-1,2,5,7-tetrahydrofuro[3,4-b]pyridine-3-carboxamido)acetic acid] |  |  | 87.3 |  | 41400 | 476
11 | O=C(O)CNC(=O)c1c(O)c2c(n(Cc3cnc(C(F)(F)F)nc3)c1=O)COC2 [Example 12, 2-(4-hydroxy-2-oxo-1-((2-(trifluoromethyl)pyrimidin-5-yl)methyl)-1,2,5,7-tctrahydrofuro[3,4-b]pyridine-3-carboxamido)acetic acid] |  |  | 67.3 |  | 775 | 12.3
12 | N#Cc1ccc(-c2ccc(Cn3c4c(c(O)c(C(=O)NCC(=O)O)c3=O)COC4)cc2)cc1 [Example 24, 2-(1-((4′-cyano-[1,1′-biphenyl]-4-yl)methyl)-4-hydroxy-2-oxo-1,2,5,7-tetrahydrofuro[3,4-b]pyridine-3-carboxamido)acetic acid] | 1.5 | 642 | 30.4 | 13.7 |  | 
13 | N#Cc1ccc(Cn2c3c(c(O)c(C(=O)NCC(=O)O)c2=O)COC3)cc1 [Example 6, 2-(1-(4-Cyanobenzyl)-4-hydroxy-2-oxo-1,2,5,7-tetrahydrofuro[3,4-b]pyridine-3-carboxamido)acetic acid] | 3.1 | 1820 | 17.9 | 123 |  | 
